Ten compounds from patent US20260184707A1, “PHARMACEUTICAL COMPOUNDS FOR THE TREATMENT OF COMPLEMENT MEDIATED DISORDERS” (ALEXION PHARMACEUTICALS, INC., priority 2022, published 2026) can be followed below.

As a reminder, the IC50 is the concentration needed to halve the response being measured.

Some results are limits rather than exact numbers.

This assay has as its target T1, Human complement C1s enzyme (Homo sapiens, UniProt P09871).
T1 construct: purified from human serum, Complement Technology, Inc; purchased Complement Technology, Inc; host or cells: human serum (plasma-derived native protein)
T1 sequence (P09871 438-688 limits assumed): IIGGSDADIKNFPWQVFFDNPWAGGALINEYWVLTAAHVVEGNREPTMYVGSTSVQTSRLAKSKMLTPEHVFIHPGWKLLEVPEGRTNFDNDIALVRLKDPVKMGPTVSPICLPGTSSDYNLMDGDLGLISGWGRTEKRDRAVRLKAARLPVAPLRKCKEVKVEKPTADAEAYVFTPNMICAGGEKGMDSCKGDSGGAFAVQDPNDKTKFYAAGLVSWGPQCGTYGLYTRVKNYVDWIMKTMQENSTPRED
T1 sequence (P09871 16-437 partner limits assumed): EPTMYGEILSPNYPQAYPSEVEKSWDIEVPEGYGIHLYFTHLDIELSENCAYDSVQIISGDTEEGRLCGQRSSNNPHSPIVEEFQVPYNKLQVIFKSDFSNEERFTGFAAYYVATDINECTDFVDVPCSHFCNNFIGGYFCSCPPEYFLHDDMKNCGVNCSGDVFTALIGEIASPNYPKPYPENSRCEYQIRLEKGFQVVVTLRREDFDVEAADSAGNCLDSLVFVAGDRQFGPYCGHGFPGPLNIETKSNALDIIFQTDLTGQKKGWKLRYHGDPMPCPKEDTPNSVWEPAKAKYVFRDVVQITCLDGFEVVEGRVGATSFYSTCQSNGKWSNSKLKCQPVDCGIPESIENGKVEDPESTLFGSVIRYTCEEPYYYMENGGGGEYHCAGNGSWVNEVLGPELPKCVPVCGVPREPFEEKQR
As to the kind of experiment: Human C1s enzyme assay. In kind it is biochemical. As to conditions: human complement C1s enzyme 1.16 nM, substrate Z-L-Lys-SBzl, A405; read-out: IC50 (Stars). Put shortly:
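Serum-purified human C1s (1.16 nM final) preincubated 5 min at room temperature with compound in 50 mM Tris, 1 M NaCl, pH 7.5. Z-L-Lys-SBzl and DTNB added at 100 μM each; A405 recorded every 30 s. IC50 from nonlinear regression of reaction rates versus compound concentration.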

For the compound `O=C(Cn1c(-c2ccccc2)ncc(NCc2ccc3oc4ccccc4c3c2)c1=O)NCc1cc2c(s1)CCNC2` [Compound 142, 2-(5-((dibenzo[b,d]furan-2-ylmethyl)amino)-6-oxo-2-phenylpyrimidin-1(6H)-yl)-N-((4,5,6,7-tetrahydrothieno[3,2-c]pyridine-2-yl)methyl)acetamide], the IC50 is less than 100 nM.
Then `COc1ccc(-c2cc(C(=O)Nc3cnc(-c4ccccc4)n(CC(=O)NCc4cc5cnccc5[nH]4)c3=O)on2)cc1` [Compound 109, N-(1-(2-(((1H-pyrrolo[3,2-c]pyridin-2-yl)methyl)amino)-2-oxoethyl)-6-oxo-2-phenyl-1,6-dihydropyrimidin-5-yl)-3-(4-methoxyphenyl)isoxazole-5-carboxamide], with less than 100 nM; and `O=C(Cn1c(-c2ccccc2)ncc(NC(=O)c2n[nH]c(-c3ccccc3)n2)c1=O)NCc1cc2cnccc2[nH]1` [Compound 221, N-(1-(2-(((1H-pyrrolo[3,2-c]pyridine-2-yl)methyl)amino)-2-oxoethyl)-6-oxo-2-phenyl-1,6-dihydropyrimidin-5-yl)-5-phenyl-1H-1,2,4-triazole-3-carboxamide], with less than 100 nM.
Next, `C[C@@H](Nc1cnc(-c2ccccc2)n(CC(=O)NCc2cc3cnccc3[nH]2)c1=O)c1ccc2oc3ccccc3c2c1` [Compound 126, (R)-N-((1H-pyrrolo[3,2-c]pyr-idin-2-yl)methyl)-2-(5-((1-(dibenzo[b,d]furan-2-yl)ethyl)-amino)-6-oxo-2-phenylpyrimi-din-1(6H)-yl)acetamide]: less than 100 nM; `COc1ccccc1-c1ccc(C(=O)Nc2cnc(-c3ccccc3)n(CC(=O)NCc3cc4cnccc4[nH]3)c2=O)cc1` [Compound 213, N-(1-(2-(((1H-pyrrolo[3,2-c]pyridin-2-yl)methyl)amino)-2-oxoethyl)-6-oxo-2-phenyl-1,6-dihydropyrimidin-5-yl)-2′-methoxy-[1,1′-biphenyl]-4-carboxamide]: less than 100 nM; `O=C(Cn1c(-c2ccccc2)cnc(NC(=O)c2ccc(Oc3ccccc3)cc2)c1=O)NCc1cc2cnccc2[nH]1` [Compound 177, N-(4-(2-(((1H-pyrrolo[3,2-c]pyridin-2-yl)methyl)amino)-2-oxoethyl)-3-oxo-5-phenyl-3,4-dihydropyrazin-2-yl)-4-phen-oxybenzamide]: less than 100 nM.
Then `O=C(Cn1c(N2CCCCC2)cnc(N[C@H](CO)c2ccc3oc4ccccc4c3c2)c1=O)NCc1cc2cnccc2[nH]1` [Compound 493, (S)—N-((1H-Pyrrolo[3,2-c]pyridine-2-yl)methyl)-2-(3-((1-(dibenzo[b,d]furan-2-yl)-2-hydroxyethyl)amino)-2-oxo-6-(piperidin-1-yl)pyrazin-1(2H)-yl)acetamide], with greater than 1000 nM.
As to `C[C@@H](Nc1ncc(N2CCN(C)CC2)n(CC(=O)NCc2cc3cnccc3[nH]2)c1=O)c1ccc2oc3ccccc3c2c1` [Compound 428, (R)-N-((1H-pyrrolo[3,2-c]pyridin-2-yl)methyl)-2-(3-((1-(dibenzo[b,d]furan-2-yl)ethyl)-amino)-6-(4-methylpiperazin-1-yl)-2-oxopyrazin-1(2H)-yl)-acetamide], the concentration for half-maximal inhibition (IC50) is less than 100 nM.
In the case of `C[C@@H](Nc1ncc(-c2ccccn2)n(CC(=O)NCc2cc3cnccc3[nH]2)c1=O)c1ccc2oc3ccccc3c2c1` [Compound 430, (R)-N-((1H-pyrrolo[3,2-c]pyridin-2-yl)methyl)-2-(3-((1-(dibenzo[b,d]furan-2-yl)ethyl)-amino)-2-oxo-6-(pyridin-2-yl)-pyrazin-1(2H)-yl)acetamide], the IC50 was less than 100 nM.
For `O=C(Cn1c(-c2ccccc2)ncc(NCCCc2ccc(OC(F)(F)F)cc2)c1=O)NCc1cc2cnccc2[nH]1` [Compound 39, N-((1H-pyrrolo[3,2-c]pyridin-2-yl)methyl)-2-(6-oxo-2-phen-yl-5-((3-(4-(trifluoromethoxy)-phenyl)propyl)amino)pyrimi-din-1(6H)-yl)acetamide], the IC50 was less than 100 nM.
